Patent US20090155247A1, “Methods of Using Death Receptor Agonists and EGFR Inhibitors” (priority 2005, published 2009)

Tested on: H460 non-small lung cancer cells
Test: Growth of H460 tumor xenografts in vivo
Conditions: H460 cells injected subcutaneously in mice; compared with vehicle-treated mice; treatments as provided in FIG. 6
Description: Mice were injected subcutaneously with H460 non-small lung cancer cells (ATCC) (5 million cells per mouse).

Molecule: C#Cc1cccc(Nc2ncnc3cc(OCCOC)c(OCCOC)cc23)c1 [Tarceva™, N-(3-ethynylphenyl)-6,7-bis(2-methoxyethoxy)-4-quinazolinamine]
- tumor growth: markedly delayed tumor growth

Molecule: Apo2L/TRAIL: Apo2L/TRAIL polypeptide consisting of amino acids 114-281 of FIG. 1
- tumor growth: markedly delayed tumor growth
